The target of one experiment is T1, xlσ1R-C179 (Xenopus laevis, UniProt Q6DCU6, L179C).
T1 construct: The gene encoding the full-length wild-type σ1R from Xenopus laevis; hemagglutinin signal peptide (N); decahistidine (His10) (N); TEV protease recognition site (N); made in house; host or cells: Pichia pastoris GS115
T1 sequence (Q6DCU6 1-221 L179C): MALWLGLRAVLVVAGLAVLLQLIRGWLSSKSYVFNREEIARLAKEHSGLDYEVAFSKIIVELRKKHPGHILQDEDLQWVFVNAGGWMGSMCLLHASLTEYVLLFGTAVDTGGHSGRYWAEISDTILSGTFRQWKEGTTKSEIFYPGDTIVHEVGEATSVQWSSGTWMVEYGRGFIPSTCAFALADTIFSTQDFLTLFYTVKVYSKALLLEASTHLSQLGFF
The experiment can be described thus: ITC binding of PRE084 to xlσ1R-C179 before/after mPEG-Mal-5K modification. The note with it: for C179 stoichiometry, Before modification / number of available binding sites per protomer (stoichiometry) / C179 stoichiometry, After modification: ITC; for number of available binding sites per protomer (stoichiometry): mean ± SD; for C179 stoichiometry, After modification: mPEG-Mal-5K.

Another experiment deals with T2, xlσ1R-C203 (Xenopus laevis, UniProt Q6DCU6, Y203C).
T2 construct: The gene encoding the full-length wild-type σ1R from Xenopus laevis; hemagglutinin signal peptide (N); decahistidine (His10) (N); TEV protease recognition site (N); made in house; host or cells: Pichia pastoris GS115
T2 sequence (Q6DCU6 1-221 Y203C): T1 sequence (Q6DCU6 1-221 L179C) with C179L, Y203C
The experiment can be described thus: ITC binding of PRE084 to xlσ1R-C203 before/after mPEG-Mal-5K modification. The note with it: for number of available binding sites per protomer (stoichiometry): mean ± SD; for C203 stoichiometry, After modification: mPEG-Mal-5K.

In another experiment the target is T3, xlσ1R-C179/C203 (Xenopus laevis, UniProt Q6DCU6, L179C/Y203C).
T3 construct: The gene encoding the full-length wild-type σ1R from Xenopus laevis; hemagglutinin signal peptide (N); decahistidine (His10) (N); TEV protease recognition site (N); made in house; host or cells: Pichia pastoris GS115
T3 sequence (Q6DCU6 1-221 L179C/Y203C): T1 sequence (Q6DCU6 1-221 L179C) with Y203C
The experiment is described as follows: ITC binding of PRE084 to xlσ1R-C179/C203 (disulfide oxidation / re-reduction). Particulars: ITC; for number of available binding sites per protomer (stoichiometry): mean ± SD.

[1] abbreviates: Mean of repeats (source data Fig. 4e).
The mark [2] stands for this setting: individual repeats (source data Fig. 4e).
The mark [3] stands for this setting: ITC, individual repeats (source data Fig. 4e).
Setting [4] is: Mean of repeats (source data Fig. 4b).
[5] abbreviates: individual repeats (source data Fig. 4b).

The source of these data is PMC8913746, “An open-like conformation of the sigma-1 receptor reveals its ligand entry pathway” (Nature Communications, 2022).

Structures are written as SMILES. Changes are numbered by the printed parent chain. “And” between values parts separate entries of the source, which are not always exact repeats. Equal entries are not always repeated.

`O=C(OCCN1CCOCC1)C1(c2ccccc2)CCCCC1` [PRE084, [2-(morpholin-4-yl)ethyl] 1-phenylcyclohexane-1-carboxylate]: the “C179 stoichiometry, Before modification” value on xlσ1R-C179 (setting [1]) was 0.8482; on xlσ1R-C179 (setting [2]) it was 0.787 and 0.943 and 0.756 and 0.907. Further, the “number of available binding sites per protomer (stoichiometry)” value at xlσ1R-C179 (after mPEG-Mal-5K modification) came to 0.48 ± 0.07; at xlσ1R-C179 (before mPEG-Mal-5K modification) it was 0.85 ± 0.09; at xlσ1R-C203 (ITC, after mPEG-Mal-5K modification), 0.69 ± 0.04; at xlσ1R-C203 (ITC, before mPEG-Mal-5K modification) it was 0.87 ± 0.01; at xlσ1R-C179/C203 (after oxidation (disulfide formed)) it was 0.18 ± 0.02; at xlσ1R-C179/C203 (before oxidation), 0.92 ± 0.01. Besides, the “number of available binding sites per protomer (stoichiometry)” value at xlσ1R-C179/C203 (oxidized sample re-reduced with β-mercaptoethanol) is reported as 0.52 ± 0.02. Moreover, the “C179 stoichiometry, After modification” value was 0.4808 on xlσ1R-C179 (setting [1]); 0.399 and 0.462 and 0.576 and 0.486 on xlσ1R-C179 (setting [2]). The “blockade percentage (reduction of available binding sites)” value on xlσ1R-C179 (after mPEG-Mal-5K modification) is reported as ~ 44%; on xlσ1R-C203 (after mPEG-Mal-5K modification) it was ~ 21%. Besides, at xlσ1R-C203 (setting [3]), the “C203 stoichiometry, Before modification” value was 0.883 and 0.859 and 0.873. The “C203 stoichiometry, After modification” value is 0.6895 on xlσ1R-C203 (ITC, Mean of repeats (source data Fig. 4e)); 0.635 and 0.734 and 0.712 and 0.677 on xlσ1R-C203 (setting [3]). The “increase of Kd after oxidation compared to before oxidation” value on xlσ1R-C179/C203 was ~ 9 fold. The “C179/C203 stoichiometry, After oxidation” value at xlσ1R-C179/C203 (setting [4]) was 0.1833; on xlσ1R-C179/C203 (setting [5]), 0.179 and 0.210 and 0.161. Moreover, the “C179/C203 stoichiometry, Before oxidation” value on xlσ1R-C179/C203 (setting [4]) is 0.9178; at xlσ1R-C179/C203 (setting [5]) it was 0.933 and 0.929 and 0.922 and 0.901 and 0.904. For the same compound, the “C179/C203 stoichiometry, Re-reduction” value was 0.5202 at xlσ1R-C179/C203 (setting [4]); 0.502 and 0.537 and 0.513 and 0.529 on xlσ1R-C179/C203 (setting [5]).
